Test results published in US20050171215A1, “Germicidal compositions containing halogenated phthalaldehyes, and methods of using such compositions for disinfection or sterilization” (Ethicon, Inc., priority 2004, published 2005).
Like-named read-outs stand apart in the source and are kept apart here.

What was measured:
[1] = test system: Mycobacterium terrae bacteria; assay: bacterial suspension test; type: cell-based; conditions: for Germicidal Efficacy: summary Table 14
Protocol: In Examples 1 to 3, which follow, several germicidal solutions containing either the 4-fluoro-, 4-chloro-, or 4-bromo-phthalaldehyde compound were tested to determine their effectiveness in killing at least 1×10^6/mL of Mycobacterium terrae bacteria using a bacterial suspension test. The bacterial suspension test that was employed is described in Section VII.
The solutions were prepared by adding the appropriate amounts of the germicidal compounds to an aqueous solution. Unless otherwise mentioned all concentrations reported herein are expressed in (w/v)%. The pH of the solution was not adjusted. The tests were conducted at a temperature of about 20° C. (room temperature). The results are presented in terms of log reductions/mL. It is understood that these examples, as well as the other examples herein, are to be construed as merely illustrative, and not limiting.
In this test method, 9 mL of the germicide to be tested is placed in a tube, put into a water bath and allowed to come to the desired temperature. One mL of the test organism, including at least 7 logs/mL of Mycobacterium terrae bacteria, is added to the 9 mL of the germicide to be tested. […] It will be appreciated by those skilled in the art that other concentrations may be utilized by proper dilution and accounting.
At appropriate time intervals, 1 mL aliquots of the germicide-cell suspension were removed and added directly into 9 mL of a 1% glycine solution (neutralizer) and mixed thoroughly to neutralize the germicide in the transferred suspension. The glycine solution was prepared from solid glycine, which is available from VWR Scientific Products, among others. The above-identified 10 mL neutralized solution was then poured through a membrane filter having an average pore size of 0.45 micrometers. The filter was then rinsed twice with at least 150 mL of the 1% glycine solution per rinse. The filter was then placed on an agar plate and incubated for twenty-one days at 37° C. In the above procedure, if dilution was needed, then the 1 mL germicidal-cell suspension was diluted in 99 mL of a phosphate buffer before addition to the 9 mL of the 1% glycine solution. The phosphate buffer was DiLu-LoK™ Butterfields Phosphate Buffer, available from Hardy Diagnostics, of Santa Maria, Calif.
The surviving colonies are then counted. The data is plotted as S/So vs. time. So is the initial count of the bacteria in the above 10 mL solution which is at least 10^6 bacteria/mL, and S is the surviving bacteria from the above filter on the agar plate. The results of the experiments were presented in terms of log reductions. Log reduction is the difference between log(So) and log(S). As one example, if log(So)=6.2, and if there were 100 survivors, then the log(S)=2, and the log reduction was reported as 4.2.

solubility in water = type: physicochemical

O=Cc1ccccc1C=O [OPA, phthalaldehyde, reference compound]
log reduction at 0.14 % ([1]; Mycolicibacter terrae, 5 min, 0.14%, 20° C., 5 min, read-out: Log Reductions/mL): 4.8 | log reduction at 0.28 % ([1]; Mycolicibacter terrae, 5 min, 0.28%, 20° C., 5 min, read-out: Log Reductions/mL): 5.5 | Germicidal Efficacy [1]: Good | solubility in water (solubility in water): about 5 % by weight

O=CC(C=O)c1ccccc1 [phenyl-propanedial]
Log Reductions/mL ([1]; 0.4%, 20° C., 60 min): Total Kill | Log Reductions/mL ([1]; 0.44%, 20° C., 60 min): Total Kill | Log Reductions/mL ([1]; 0.66%, 20° C., 15 min): Total Kill | Log Reductions/mL ([1]; 0.7%, 20° C., 15 min): Total Kill | Log Reductions/mL ([1]; (˜1%), 20° C., 5 min): 4.5 log reductions/mL | log reduction at 0.66 % ([1]; Mycolicibacter terrae, 5 min, 0.66%, 20° C., 5 min, read-out: Log Reductions/mL): < 2.5 | log reduction at 1 % ([1]; Mycolicibacter terrae, 5 min, ˜1%, 20° C., 5 min (Table 15), read-out: Log Reductions/mL): 4.5 | log reduction at 0.66 % ([1]; Mycolicibacter terrae, 10 min, 0.66%, 20° C., 10 min, read-out: Log Reductions/mL): 2.5 | log reduction at 0.7 % ([1]; Mycolicibacter terrae, 10 min, 0.7%, 20° C., 10 min, read-out: Log Reductions/mL): 2.5 | log reduction at 0.3 % ([1]; Mycolicibacter terrae, 0.5 h, 0.3%, 20° C., 30 min, read-out: Log Reductions/mL): 2.1 | log reduction at 0.33 % ([1]; Mycolicibacter terrae, 0.5 h, 0.33%, 20° C., 30 min, read-out: Log Reductions/mL): 2.1 | log reduction at 0.4 % ([1]; Mycolicibacter terrae, 0.5 h, 0.4%, 20° C., 30 min, read-out: Log Reductions/mL): 2.5 | log reduction at 0.44 % ([1]; Mycolicibacter terrae, 0.5 h, 0.44%, 20° C., 30 min, read-out: Log Reductions/mL): 2.5 | log reduction at 0.2 % ([1]; Mycolicibacter terrae, 1 h, 0.2%, 20° C., 60 min, read-out: Log Reductions/mL): 2.1 | log reduction at 0.22 % ([1]; Mycolicibacter terrae, 1 h, 0.22%, 20° C., 60 min, read-out: Log Reductions/mL): 2.1 | concentration effective to achieve a total kill ([1]; within 15 minutes, 20° C.): 0.4 to 0.7% | concentration effective to achieve a total kill of the bacteria ([1]; within 60 minutes, 20° C.): 0.3 to 0.4% | solubility in water (solubility in water): about 1%

O=Cc1ccc(Cl)cc1C=O [4-chloro-phthalaldehyde]
Log Reductions/mL ([1]; 2.7 w/v % (in 20% isopropanol), 20° C., 5 min): Total Kill | concentration effective to achieve a total kill of all bacteria ([1]; in five minutes, 20° C.): 0.2 to 2.7%

O=Cc1ccc(F)cc1C=O [4-fluoro-phthalaldehyde]
Log Reductions/mL ([1]; 0.25%, 20° C., 60 minutes exposure): Total Kill | time to achieve a total kill of the bacteria ([1]; about 0.25%, 20° C.): 30 to 60 min

O=Cc1ccc(Br)cc1C=O [4-bromo-phthalaldehyde]
Log Reductions/mL ([1]; 0.1%, 20° C., 30 minutes exposure): Total Kill | time to achieve a total kill of the bacteria ([1]; about 0.1%, 20° C.): 10 to 30 min

O=Cc1ccccc1C(O)S(=O)(=O)[O-].[Na+] (stereo not shown) [(2-formyl-phenyl)-hydroxy-methane sulfonic acid, sodium salt]
Log Reductions/mL ([1]; 9.1%, 20° C., 5 min): Confluent

O=CC(c1ccccc1)C(O)S(=O)(=O)[O-].[Na+] (stereo not shown) [1-hydroxy-3-oxo-2-phenyl-propane-1-sulfonic acid, sodium salt]
Log Reductions/mL ([1]; 0.6%, 20° C., 60 min): Total Kill | log reduction at 0.6 % ([1]; Mycolicibacter terrae, 5 min, 0.6%, 20° C., 5 min, read-out: Log Reductions/mL): 2.1 | log reduction at 0.6 % ([1]; Mycolicibacter terrae, 20 min, 0.6%, 20° C., 20 min, read-out: Log Reductions/mL): 2.5 | log reduction at 0.6 % ([1]; Mycolicibacter terrae, 25 min, 0.6%, 20° C., 25 min, read-out: Log Reductions/mL): 2.9

O=Cc1cccc(C=O)c1 [IPA, isophthalaldehyde, reference compound]
Log Reductions/mL ([1]; 0.3%, dissolved in 20% isopropanol, 20° C., 5 min (Table 11)): Confluent | Log Reductions/mL ([1]; 0.3%, dissolved in 20% isopropanol, 20° C., 5 min (Table 15)): Confluent | Germicidal Efficacy [1]: Poor

O=Cc1ccc(C=O)cc1 [TPA, terephthalaldehyde, reference compound]
Log Reductions/mL ([1]; 0.2%, dissolved in 20% isopropanol, 20° C., 5 min): Confluent | Germicidal Efficacy [1]: Poor

4-pyridinyl-propanedial
Log Reductions/mL ([1]; Saturated (˜2.3% w/v), 5 min, 20° C.): 4.0 log reductions/mL

O=CC(C=O)c1cccc(C(=O)O)c1[N+](=O)[O-] [3-(1-formyl-2-oxoethyl)-2-nitro-benzoic acid]
log reduction at 2.1 % ([1]; Mycolicibacter terrae, 5 min, Saturated (˜2.1% w/v), 5 min, 20° C., read-out: Log Reductions/mL): 4
